From patent EP1087941B9, “THIOLESTERS AND USES THEREOF” (THE UNITED STATES OF AMERICA, as represented by THE …, priority 1998, dated 1999) come the findings set out here.

In one series the test system is CEM-SS cells. The series can be described thus: cells. The following applies: for IC50: Homo sapiens, CEM-SS. The format is cell-based. The source says: (§1) One exemplary means to determine antiviral activity is with CEM-SS cells and virus (e.g., HIV-1RF) (MOI = 0.01) using the XTT (2,3-bis[2-methoxy- 4-nitro-5-sulfophenyl] -5- [(phenylamino)carbonyl]-2H-tetrazolium hydroxide) cytoprotection assay, as described by Rice (1993) PNAS 90:9721-9724, and Rice (1997) Antimicrob. Agents Chemother. 41:419-426. Briefly, cells are infected with HIV-1RF (or other virus to be tested) in the presence of various dilutions of test compounds (thiolesters and controls). The cultures are incubated for seven days. During this time control cultures without protective compounds (i.e., compounds with anti-viral activity) replicate virus, induce syncytia, and result in about 90% cell death. The cell death is measured by XTT dye reduction. XTT is a soluble tetrazolimn dye that measures mitochondrial energy output, similar to MTT. Positive controls using dextran sulfate (an attachment inhibitor) or 3'-Azido -2'-3'-dideoxythymidine, AZT (a reverse transcriptase inhibitor) are added to each assay. Individual assays are done in duplicate using a sister plate method.
(§2) Effective antiviral concentrations providing 50% cytoprotection (EC50), and cellular growth inhibitory concentrations causing 50% cytotoxicity (IC50) are calculated.

In series [1] the target is T1, recombinant HIV-1 NCp7 protein (Human immunodeficiency virus type 1 group M subtype B, UniProt P03347).
T1 construct: within the nucleocapsid p7 (NCp7) protein portion of the polyprotein
The series can be described thus: Trp37 zinc finger fluorescence (zinc ejection) assay. Format: biochemical. The following applies: for Zinc Finger Reactivity RFU/30 min: Table 2; for Zinc Finger Reactivity RFU/30 min / Zinc Finger Reactivity RFU/ min: average decrease in relative fluorescence; for Zinc Finger Reactivity RFU/ min: Table 3. As to the method: Zinc finger reactivity was measured using a Zn specific fluorochrome, TSQ, N-(6-methoxy-8-quinolyl) -p-toluenesulfonamide, assay or a Trp37 zinc finger fluorescence assay. Fluorescent measurements of the Trp37 residue in the C-terminal finger of recombinant HIV-1 NCp7 protein were performed as described by Rice (1995) Science 270:1194-1197; Rice (1997) Antimicrob. Agents Chemother. 41:419-426. Measurement of Zn ejection from both fingers was measured using the Zn-selective fluorchrome probe TSQ (Molecular Probes, Eugene OR) as described by Rice (1996) J. Med. Chem 39:3606-3616. Measurement of the ability of NCp7 to bind to a DNA oligomer, a 44 mer: […] (SEQ ID NO:1), analogous to the HIV-1 RNA packaging site was carried out as described by Huang (1998) J. Med. Chem. 41:1371-1381, see also, Rossio (1998) HIV Pathogenesis and Treatment: Keystone Symposium on Molecular and Cellular Biology, Abstract # 4082. Briefly, 50 nM NCp7 was treated with test compounds for 1 hour at RT in […] buffer containing 10% glycerol and 50 mM Tris-HCl (pH 7.5). Labeled oligomer (0.1 picomole, end labeled [^32P]) was added in an equal volume of buffer containing 10% glycerol, 50 mM Tris-HCl (pH 7.5), 400 mM KCl and 40 mM MgCl2. The reaction was continued for 15 min at room temperature, and a total of […] (or 1/4 of the total reaction volume) was separated on nondenaturing 4.5% polyacrylamide gels in 0.5X Tris-Borate electrophoresis buffer. NCp7-oligomer complexes were visualized by autoradiography.
Changes in the intrinsic fluorescence of aromatic protein moieties are commonly used to monitor a reaction which involves a change in protein conformation. In the present invention, fluorescence can be used to monitor the loss of metal ion from a zinc finger, e.g., the loss of zinc from a CCHC retroviral zinc finger protein, after contact with a thiolester of the invention. The intrinsic fluorescence of Trp 37 in the second zinc finger of HIV-1 NC protein has been used to monitor nucleic acid binding and conformation of the zinc finger complex (see, Summers (1992) supra).
Zinc ejection is measured by the ability of compounds to chemically attack the cysteines in purified NCp7 protein resulting in a loss of fluorescence due to the movement of the tryptophan 37 residue from an exposed to an internal position on the protein. Zinc ejection is measured and expressed as either percent decrease in total fluorescence or decrease in relative fluorescence units per min during a 30 min assay (RFU/min). A thiolester is considered within the scope of the invention if any amount of zinc ejection is detected. For example, compound 50 has a zinc ejection rate of 0.86 RFU/min.

The next series relates to HIV-1RF. The series can be described thus: XTT cytoprotection assay (antiviral activity). To be noted: for antiviral activity: result in words. Format: cell-based.
Description: as §1, §2

[2] abbreviates: read-out: Antiviral Activity IC50.
The mark [3] stands for this setting: read-out: IC50 / cellular toxicity.
[4] abbreviates: Human immunodeficiency virus 1, read-out: Antiviral Activity EC50.
Where [5] appears, read: Human immunodeficiency virus 1, B104.
Where [6] appears, read: Human immunodeficiency virus 1, read-out: EC50 (concentration inhibiting 50% virus replication).

Read-outs that look alike come from different tables or passages of the source.

Take `NS(=O)(=O)c1ccc(Cn2sc3ccccc3c2=O)cc1` [23 BITA]: the IC50 in the series with CEM-SS cells (setting [2]) and in the series with CEM-SS cells (setting [3]) was 53.7 µM each time. For the same molecule, the “Zinc Finger Reactivity RFU/30 min” value in series [1] is given as 2.7 RFU/30 min. Further, the EC50 in the series on HIV-1RF (setting [4]) was determined as 13.8 µM.

For the molecule `NS(=O)(=O)c1ccc(CCn2sc3ccccc3c2=O)cc1` [24 BITA], in the series with CEM-SS cells (setting [2]), the IC50 is 45.5 µM. Moreover, the “Zinc Finger Reactivity RFU/30 min” value in series [1] was determined as 2.7 RFU/30 min. For the same molecule, the EC50 with HIV-1RF (setting [4]) turned out to be 2 µM.

Take `CC(=O)Nc1ccc(S(=O)(=O)Nc2ccc(S(=O)(=O)c3ccc(-n4sc5ccccc5c4=O)cc3)cc2)cc1` [28 BITA]: the IC50 in the series on CEM-SS cells (setting [2]) came out at 188 µM. In series [1], the “Zinc Finger Reactivity RFU/ min” value stood at 7.9 RFU/ min. The EC50 with HIV-1RF (setting [4]) came out at 9.6 µM.

As for `O=c1c2ccccc2sn1-c1ccc(S(=O)(=O)c2ccc([N+](=O)[O-])cc2)cc1` [31 BITA], in the series on CEM-SS cells (setting [2]), the IC50 is above 316 µM. For the same molecule, the “Zinc Finger Reactivity RFU/ min” value in series [1] is given as 4.1 RFU/ min. Further, in the series on HIV-1RF (setting [4]), the EC50 was above 316 µM. The antiviral activity result in the series on HIV-1RF is “without antiviral activity”.

On to `O=c1c2ccccc2sn1-c1ccc(S(=O)(=O)c2ccc(NS(=O)(=O)Cc3ccccc3[N+](=O)[O-])cc2)cc1` [34 BITA], for which, in the series with CEM-SS cells (setting [2]), the IC50 was 59.5 µM. Besides, the “Zinc Finger Reactivity RFU/ min” value in series [1] was determined as 2 RFU/ min. The EC50 in the series on HIV-1RF (setting [4]) was determined as 3.2 µM. Further, in the series on HIV-1RF, the antiviral activity entry is listed as “significant antiviral activity”.

With `NS(=O)(=O)c1ccc(CNC(=O)c2ccccc2SSc2ccccc2C(=O)NCc2ccc(S(N)(=O)=O)cc2)cc1` [Compound 23D, N,N'-(2,2'-dithiodibenzoyl)-bis-4-(aminomethyl)benzene-sulfonamide], the IC50 with CEM-SS cells (setting [2]) worked out at 19.4 µM. Also, the IC50 with CEM-SS cells (setting [3]) came out at 19.4 µM. In addition, in series [1], the “zinc finger reactivity / zinc ejection rate” value is on record as 3.3 RFU/min and the “Zinc Finger Reactivity RFU/30 min” value came to 3.3 RFU/30 min. Also, the EC50 in the series on HIV-1RF (setting [4]) was determined as 0.33 µM.

`NS(=O)(=O)c1ccc(CCNC(=O)c2ccccc2SSc2ccccc2C(=O)NCCc2ccc(S(N)(=O)=O)cc2)cc1` [Compound 24D, N,N-(2,2'-dithiodibenzoyl)-bis-4-(2-aminoethyl)benzene-sulfonamide]: the IC50 in the series with CEM-SS cells (setting [2]) is 52.8 µM. Also, in series [1], the “Zinc Finger Reactivity RFU/30 min” value is given as 2.7 RFU/30 min. The EC50 with HIV-1RF (setting [4]) is 0.41 µM.

`NS(=O)(=O)c1ccc(NC(=O)CNC(=O)c2ccccc2SSc2ccccc2C(=O)NCC(=O)Nc2ccc(S(N)(=O)=O)cc2)cc1` [Compound 25D, N,N'-(2,2'-dithiodibenzoyl)-bis-4-(glycinamido)benzene-sulfonamide]: the IC50 in the series with CEM-SS cells (setting [2]) turned out to be 17.6 µM. In series [1], the “zinc finger reactivity / zinc ejection rate” value is on record as 7.9 RFU/min and the “Zinc Finger Reactivity RFU/30 min” value is on record as 7.9 RFU/30 min. Further, the EC50 with HIV-1RF (setting [4]) was 1.6 µM.

Regarding `Nc1ccc(S(=O)(=O)c2ccc(NC(=O)c3ccccc3SSc3ccccc3C(=O)Nc3ccc(S(=O)(=O)c4ccc(N)cc4)cc3)cc2)cc1` [Compound 26D], in the series on CEM-SS cells (setting [2]), the IC50 was below 316 µM. Moreover, in the series on CEM-SS cells (high test dose of 316 µM), the “toxicity at the high test dose” value is “no toxicity”. Moreover, in series [1], the “zinc finger reactivity / zinc ejection rate” value came to 3.3 RFU/min. Moreover, in series [1], the “Zinc Finger Reactivity RFU/ min” value was 3.3 RFU/ min. For the same molecule, the EC50 with HIV-1RF (setting [5]), in the series with HIV-1RF (setting [4]) and with HIV-1RF (setting [6]) was 4.3 µM in each case.

With `CC(=O)Nc1ccc(S(=O)(=O)c2ccc(NC(=O)c3ccccc3SSc3ccccc3C(=O)Nc3ccc(S(=O)(=O)c4ccc(NC(C)=O)cc4)cc3)cc2)cc1` [Compound 27D], the IC50 in the series with CEM-SS cells (setting [2]) and with CEM-SS cells (setting [3]) was 160 µM each time. Also, in series [1], the “zinc finger reactivity / zinc ejection rate” value turned out to be 5.9 RFU/min. For the same molecule, the “Zinc Finger Reactivity RFU/ min” value in series [1] was found to be 5.9 RFU/ min. Besides, the EC50 with HIV-1RF (setting [5]), in the series on HIV-1RF (setting [4]) and with HIV-1RF (setting [6]) was 1.5 µM each time.

In the case of `O=C(Nc1ccc(S(=O)(=O)c2ccc(NC(=O)c3ccccc3SSc3ccccc3C(=O)Nc3ccc(S(=O)(=O)c4ccc(NC(=O)c5cccs5)cc4)cc3)cc2)cc1)c1cccs1` [Compound 30D], the IC50 in the series on CEM-SS cells (setting [2]) came to 190 µM. Moreover, the EC50 with HIV-1RF (setting [4]) turned out to be 12.2 µM.
